These results are taken from patent US20140120087A1, “TRIAZOLOPYRIDINES” (BAYER INTELLECTUAL PROPERTY GMBH, priority 2011, published 2014).

By IC50 is commonly meant the concentration at which inhibition is half-maximal.

Series [1] can be described thus: Hydrolytic stability assay at pH 2. The format is physicochemical. Particulars: buffer pH 2, 37° C., compounds of the invention. How it is done: The hydrolytic stability assay investigates the stability of a compound in an aqueous buffer system. Standard solution stability assay is run in 0.05 M Phosphate buffer at pH 7.4 (pH of blood plasma) at 37° C. As compounds in the GI tract are exposed to a wide variety of pHs any relevant pH (as pH 2 to simulate the acidic condition of the GI tract in the following experiment) can be chosen. Compounds are incubated in relevant solution at 37° C. and analyzed by HPLC immediately after incubation and after 1, 2 and 24 hrs. Degradation rate (decay in %) is calculated by relating peak areas after 1, 2 and 24 hrs to the time zero injection.
Compound is available as 10 mM in DMSO (solution 1). 2.5 μL of solution 1 is dissolved in 1 mL acetonitrile leading to solution 2. Poorly soluble compounds may demand another dilution step of solution 2 (1:5 and 1:10 respectively) in Acetonitrile). Solution 2 is incubated at 37° C. in a tempered HPLC autosampler. 1 mL buffer pH 2 is transferred into an HPLC vial. 100 μL of solution 2 is added to the buffer pH 2 solution and mixed thoroughly. Immediately after mixing the combined solution is injected into the HPLC to give the time zero injection. Injections are repeated after 1, 2 and 24 hrs.
The degradation rate (decay in %) is calculated using HPLC software Millennium and Excel respectively.

Series [2] deals with T1, Mps-1 kinase (Homo sapiens, UniProt P33981).
T1 sequence (P33981 1-857): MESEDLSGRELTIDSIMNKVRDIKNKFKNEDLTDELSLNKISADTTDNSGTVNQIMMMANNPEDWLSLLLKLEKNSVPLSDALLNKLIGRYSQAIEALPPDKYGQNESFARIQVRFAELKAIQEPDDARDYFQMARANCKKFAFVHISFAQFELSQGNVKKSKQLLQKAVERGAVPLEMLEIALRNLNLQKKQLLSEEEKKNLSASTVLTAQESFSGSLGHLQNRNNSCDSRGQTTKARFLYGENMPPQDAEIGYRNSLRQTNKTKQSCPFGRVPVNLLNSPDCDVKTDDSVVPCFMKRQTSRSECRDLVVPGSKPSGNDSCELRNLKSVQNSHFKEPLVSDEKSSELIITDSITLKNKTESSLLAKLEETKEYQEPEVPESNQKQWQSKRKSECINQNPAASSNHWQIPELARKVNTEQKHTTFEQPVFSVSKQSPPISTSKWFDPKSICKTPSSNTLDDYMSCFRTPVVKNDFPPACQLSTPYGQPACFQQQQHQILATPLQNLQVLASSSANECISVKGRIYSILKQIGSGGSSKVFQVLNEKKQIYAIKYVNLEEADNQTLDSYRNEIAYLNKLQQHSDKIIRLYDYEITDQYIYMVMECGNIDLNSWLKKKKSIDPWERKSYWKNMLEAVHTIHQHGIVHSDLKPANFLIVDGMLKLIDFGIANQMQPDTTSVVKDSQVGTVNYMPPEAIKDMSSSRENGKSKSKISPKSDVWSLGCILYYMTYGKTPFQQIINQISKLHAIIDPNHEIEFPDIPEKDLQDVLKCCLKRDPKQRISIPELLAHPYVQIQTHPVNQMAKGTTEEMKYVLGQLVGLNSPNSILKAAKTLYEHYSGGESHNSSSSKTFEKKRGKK
The experiment in a line: Mps-1 kinase assay with 10 μM ATP (TR-FRET). On the technique in general: TR-FRET usually uses a lanthanide donor and a delayed reading to cut background.

Series [3] deals with T1, Mps-1 kinase. Kind of series: Mps-1 kinase assay with 2 mM ATP (TR-FRET).

A value given as a limit tells only on which side of the number the result lay.

In the case of `CCNC(=O)c1ccc(Nc2nc3ccc(-c4ccc(C(=O)NCC5CC5)cc4)cn3n2)c(OCC(F)(F)F)c1` [Example 06.5, 4-[(6-{4-[(cyclopropylmethyl)carbamoyl]phenyl}[1,2,4]triazolo[1,5-α]-pyridin-2-yl)amino]-N-ethyl-3-(2,2,2-trifluoroethoxy)benzamide], the “Hydrolysis at pH 2; Decay in % after 24 h” value (“Hydrolysis … in % after 24 h” for short) in series [1] was less than 10%. For the same compound, the IC50 at Mps-1 kinase [2] is no more than 1 nM; at Mps-1 kinase [3] it was 19 nM.

For `COc1cc(C(=O)NCCS(C)(=O)=O)ccc1Nc1nc2ccc(-c3ccc(C(=O)NCc4ccc(F)cc4)cc3)cn2n1` [Example 02.15, 4-[(6-{4-[(4-fluorobenzyl)carbamoyl]phenyl}[1,2,4]triazolo[1,5-α]pyridin-2-yl)amino]-3-methoxy-N-[2-(methylsulfonyl)ethyl]benzamide], the “Hydrolysis … in % after 24 h” value in series [1] was less than 10%. The IC50 at Mps-1 kinase [2] and against Mps-1 kinase [3] was no more than 1 nM throughout.

In the case of `CCN(CC)C(=O)c1ccc(Nc2nc3ccc(-c4ccc(NC(=O)Cc5ccc(F)cc5)cc4)cn3n2)c(OCCOC)c1` [Example 01.26, N,N-diethyl-4-{[6-(4-{[(4-fluorophenyl)acetyl]amino}phenyl)[1,2,4]triazolo-[1,5-α]pyridin-2-yl]amino}-3-(2-methoxyethoxy)benzamide], the “Hydrolysis … in % after 24 h” value in series [1] is less than 10%. Also, the IC50 at Mps-1 kinase [2] is no more than 1 nM; on Mps-1 kinase [3], 21 nM.

As for `CCOc1cc(C(=O)N(CC)CC)ccc1Nc1nc2ccc(-c3ccc(NC(=O)Cc4ccc(F)cc4)cc3)cn2n1` [Example 01.10, 3-ethoxy-N,N-diethyl-4-{[6-(4-{[(4-fluorophenyl)acetyl]amino}phenyl)-[1,2,4]triazolo[1,5-α]pyridin-2-yl]amino}benzamide], the “Hydrolysis … in % after 24 h” value in series [1] is less than 10%. Also, the IC50 against Mps-1 kinase [2] and on Mps-1 kinase [3] was no more than 1 nM each time.

Turning to `CCOc1cc(C(=O)NCCO)ccc1Nc1nc2ccc(-c3ccc(NC(=O)Cc4ccc(F)cc4)cc3)cn2n1` [Example 01.8, 3-ethoxy-4-{[6-(4-{[(4-fluorophenyl)acetyl]amino}phenyl)[1,2,4]triazolo-[1,5-α]pyridin-2-yl]amino}-N-(2-hydroxyethyl)benzamide], in series [1], the “Hydrolysis … in % after 24 h” value is listed as less than 10%. The IC50 against Mps-1 kinase [2] and at Mps-1 kinase [3] was no more than 1 nM throughout.

On to `O=C(NCc1ccc(F)cc1)c1ccc(-c2ccc3nc(Nc4ccc(C(=O)NCC(F)(F)F)cc4OCC(F)(F)F)nn3c2)cc1` [Example 02.23, 4-[(6-{4-[(4-fluorobenzyl)carbamoyl]phenyl}[1,2,4]triazolo[1,5-α]pyridin-2-yl)amino]-3-(2,2,2-trifluoroethoxy)-N-(2,2,2-trifluoroethyl)benzamide], for which the “Hydrolysis … in % after 24 h” value in series [1] is listed as less than 10%. Further, the IC50 at Mps-1 kinase [2] and against Mps-1 kinase [3] was no more than 1 nM each time.

In the case of `CCNC(=O)c1ccc(Nc2nc3ccc(-c4ccc(C(=O)NCc5cccc(F)c5)cc4)cn3n2)c(OC)c1` [Example 07.1, N-ethyl-4-[(6-{4-[(3-fluorobenzyl)carbamoyl]phenyl}[1,2,4]triazolo[1,5-α]-pyridin-2-yl)amino]-3-methoxybenzamide], in series [1], the “Hydrolysis … in % after 24 h” value is given as less than 10%. In addition, the half-inhibitory concentration (IC50) on Mps-1 kinase [2] is no more than 1 nM; against Mps-1 kinase [3], 14 nM.

On to `CC(C)(C)NC(=O)c1ccc(Nc2nc3ccc(-c4ccc(NC(=O)Cc5ccc(F)cc5)cc4)cn3n2)c(OCC(F)(F)F)c1` [Example 01.21, N-tert-butyl-4-{[6-(4-{[(4-fluorophenyl)acetyl]amino}phenyl)[1,2,4]-triazolo[1,5-α]pyridin-2-yl]amino}-3-(2,2,2-trifluoroethoxy)benzamide], for which the “Hydrolysis … in % after 24 h” value in series [1] is less than 10%. Also, the IC50 against Mps-1 kinase [2] and on Mps-1 kinase [3] was no more than 1 nM in each case.

With `CCOc1cc(F)ccc1Nc1nc2ccc(-c3ccc(NC(=O)Cc4ccc(F)cc4)cc3)cn2n1` [Example 01.3, N-(4-{2-[(2-ethoxy-4-fluorophenyl)amino][1,2,4]triazolo[1,5-α]pyridin-6-yl}phenyl)-2-(4-fluorophenyl)acetamide], in series [1], the “Hydrolysis … in % after 24 h” value is less than 10%. Besides, the concentration for half-maximal inhibition (IC50) at Mps-1 kinase [2] was no more than 1 nM; against Mps-1 kinase [3], 1.1 nM.

For `COc1cc(C(=O)NCCO)ccc1Nc1nc2ccc(-c3ccc(C(=O)NCc4ccc(F)cc4)cc3)cn2n1` [Example 02.1, 4-[(6-{4-[(4-fluorobenzyl)carbamoyl]phenyl}[1,2,4]triazolo[1,5-α]pyridin-2-yl)amino]-N-(2-hydroxyethyl)-3-methoxybenzamide], in series [1], the “Hydrolysis … in % after 24 h” value is reported as less than 10%. The IC50 was no more than 1 nM against Mps-1 kinase [2] and 1.1 nM at Mps-1 kinase [3].

For `CCN(CC)C(=O)c1ccc(Nc2nc3ccc(-c4ccc(NC(=O)Cc5ccc(F)cc5)cc4)cn3n2)c(OC)c1` [Example 01.1, N,N-diethyl-4-{[6-(4-{[(4-fluorophenyl)acetyl]amino}phenyl)[1,2,4]-triazolo[1,5-α]pyridin-2-yl]amino}-3-methoxybenzamide], the “Hydrolysis … in % after 24 h” value in series [1] is given as less than 10%. In addition, the values for the IC50 at Mps-1 kinase [2] and at Mps-1 kinase [3] were no more than 1 nM and 1.2 nM, respectively.

`CC(C)(CO)NC(=O)c1ccc(Nc2nc3ccc(-c4ccc(C(=O)NCc5ccc(F)cc5)cc4)cn3n2)c(OCC(F)(F)F)c1` [Example 02.18, 4-[(6-{4-[(4-fluorobenzyl)carbamoyl]phenyl}[1,2,4]triazolo[1,5-α]pyridin-2-yl)amino]-N-(1-hydroxy-2-methylpropan-2-yl)-3-(2,2,2-trifluoroethoxy)-benzamide]: in series [1], the “Hydrolysis … in % after 24 h” value is given as less than 10%. Moreover, the IC50 against Mps-1 kinase [2] and at Mps-1 kinase [3] was no more than 1 nM throughout.

As to `CCOc1cc(C(=O)N(CC)CCOC)ccc1Nc1nc2ccc(-c3ccc(C(=O)NCC4CC4)cc3)cn2n1` [Example 06.2, 4-[(6-{4-[(cyclopropylmethyl)carbamoyl]phenyl}[1,2,4]triazolo[1,5-α]-pyridin-2-yl)amino]-3-ethoxy-N-ethyl-N-(2-methoxyethyl)benzamide], in series [1], the “Hydrolysis … in % after 24 h” value is reported as less than 10%. Further, the IC50 against Mps-1 kinase [2] is 1.4 nM; against Mps-1 kinase [3], 26 nM.

For `COc1cc(C(=O)NC(C)(C)C)ccc1Nc1nc2ccc(-c3ccc(NC(=O)Cc4ccc(F)cc4)cc3)cn2n1` [Example 01.5, N-tert-butyl-4-{[6-(4-{[(4-fluorophenyl)acetyl]amino}phenyl)[1,2,4]-triazolo[1,5-α]pyridin-2-yl]amino}-3-methoxybenzamide], in series [1], the “Hydrolysis … in % after 24 h” value is given as less than 10%. The 50% inhibitory concentration (IC50) against Mps-1 kinase [2] and at Mps-1 kinase [3] was no more than 1 nM throughout.

`CCNC(=O)c1ccc(Nc2nc3ccc(-c4ccc(NC(=O)Cc5ccc(F)cc5)cc4)cn3n2)c(OC)c1` [Example 01.4, N-ethyl-4-{[6-(4-{[(4-fluorophenyl)acetyl]amino}phenyl)[1,2,4]triazolo[1,5-α]pyridin-2-yl]amino}-3-methoxybenzamide]: in series [1], the “Hydrolysis … in % after 24 h” value is recorded as less than 10%. In addition, the concentration for half-maximal inhibition (IC50) at Mps-1 kinase [2] and on Mps-1 kinase [3] was no more than 1 nM each time.

For the compound `CCOc1cc(C(=O)NC(C)(C)CO)ccc1Nc1nc2ccc(-c3ccc(C(=O)NCc4ccc(F)cc4)cc3)cn2n1` [Example 02.3, 3-ethoxy-4-[(6-{4-[(4-fluorobenzyl)carbamoyl]phenyl}[1,2,4]triazolo[1,5-α]pyridin-2-yl)amino]-N-(1-hydroxy-2-methylpropan-2-yl)benzamide], the “Hydrolysis … in % after 24 h” value in series [1] is on record as less than 10%. Further, the concentration for half-maximal inhibition (IC50) against Mps-1 kinase [2] and at Mps-1 kinase [3] was no more than 1 nM each time.

On to `COc1cc(C#N)ccc1Nc1nc2ccc(-c3ccc(NC(=O)Cc4ccc(F)cc4)cc3)cn2n1` [Example 01.2, N-(4-{2-[(4-cyano-2-methoxyphenyl)amino][1,2,4]triazolo[1,5-α]pyridin-6-yl}phenyl)-2-(4-fluorophenyl)acetamide], for which the “Hydrolysis … in % after 24 h” value in series [1] is listed as less than 10%. For the same compound, the 50% inhibitory concentration (IC50) against Mps-1 kinase [2] was no more than 1 nM; against Mps-1 kinase [3] it was 4.1 nM.
